Source: patent US5089623A, “Certain imidate insecticides” (Imperial Chemical Industries Plc, priority 1990, dated 1992)

Tests used:
Assay type in all cases: in vivo
[1] = tested on: Cabbage Looper [Trichoplusia ni (Hubner)]; test: Cabbage looper test (CL); conditions: second-instar larvae, 3-5 days, percent in solution
[2] = tested on: Aster Leafhopper [Macrosteles fascifrens (Stal)]; test: Aster leafhopper test (LH); conditions: adults/nymphs, 48 hours, percent in solution
[3] = tested on: Tobacco Budworm [Heliothis virescens (Fabricius)] eggs; test: Tobacco budworm egg test (TBW-E); conditions: percent in solution
[4] = tested on: Maize weevil [Sitophilus Zeamais (Motschulsky)]; test: Maize weevil test (MW); conditions: adult weevils, treated corn seeds, 48 hours, percent in solution
In short: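 Adult weevils (10) were placed with four corn seeds that had been dipped 2-3 s in compound dissolved in 50:50 acetone:water, then dried, and held at about 25° C. Mortality was scored at 48 h. LC50 was taken from dosage-mortality curves and expressed as percent compound in solution, from a 0.01% top concentration.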

[5] = tested on: Housefly [Musca domestica]; test: Housefly insecticidal test (HF); conditions: per 25 female houseflies, 48 hours

In the case of `CC(=Nc1ccc(F)c(F)c1)OCc1coc(Cc2ccccc2)c1` [Compound 526], the “LC50 CL” value [1] was > 0.01%, the “LC50 LH” value [2] was > 0.05% and the “LC50 TBW E” value [3] was > 0.1%. For the same molecule, the “LC50 MW” value [4] was > 0.01% and the “LC50 HF” value [5] was 8.3 µg.

In the case of `CC(C)C(=Nc1cccc(C(F)(F)F)c1)OCc1ccnc(Oc2ccc(Cl)cc2)c1` [Compound 517], the “LC50 CL” value [1] was 0.0008%, the “LC50 LH” value [2] was > 0.05% and the “LC50 TBW E” value [3] was 0.04%. For the same molecule, the “LC50 MW” value [4] was > 0.01% and the “LC50 HF” value [5] was 80 µg.

In the case of `CC(C)C(=Nc1cc(Cl)ccc1Cl)OCc1cccc(Oc2ccccc2)c1` [Compound 13], the “LC50 CL” value [1] was 0.014%, the “LC50 LH” value [2] was > 0.05% and the “LC50 TBW E” value [3] was > 0.1%. For the same molecule, the “LC50 MW” value [4] was > 0.01% and the “LC50 HF” value [5] was > 100 µg.

For `N#CC(=Nc1ccc(Cl)cc1)OCc1cccc(Oc2ccccc2)c1` [Compound 21], the “LC50 CL” value [1] was 0.02%, the “LC50 LH” value [2] was > 0.05% and the “LC50 TBW E” value [3] was > 0.1%. For the same molecule, the “LC50 MW” value [4] was > 0.01% and the “LC50 HF” value [5] was 7 µg.

For `CC(C)C(=Nc1ccc2c(c1)OCO2)OCc1cc(Oc2ccc(F)cc2)ccn1` [Compound 515], the “LC50 CL” value [1] was 0.0015%, the “LC50 LH” value [2] was > 0.05% and the “LC50 TBW E” value [3] was > 0.1%. For the same molecule, the “LC50 MW” value [4] was > 0.01% and the “LC50 HF” value [5] was 28 µg.

`CC(C)C(=Nc1ccc(F)c(Cl)c1)OCc1cccc(Oc2ccccc2F)c1` [Compound 119] was tested, and the “LC50 CL” value [1] was 0.0007%, the “LC50 LH” value [2] was 0.0008% and the “LC50 TBW E” value [3] was 0.048%. For the same molecule, the “LC50 MW” value [4] was > 0.01% and the “LC50 HF” value [5] was 27 µg.

In the case of `CCC(=Nc1ccc(Cl)cc1)OCc1cccc(Oc2ccccc2)c1` [Compound 11], the “LC50 CL” value [1] was 0.025%, the “LC50 LH” value [2] was > 0.05% and the “LC50 TBW E” value [3] was > 0.1%. For the same molecule, the “LC50 MW” value [4] was > 0.01% and the “LC50 HF” value [5] was 6 µg.

`CC(C)C(=Nc1cccc(C(C)(C)C)c1)OCc1cccc(Oc2ccc(F)cc2)c1` [Compound 350] was tested, and the “LC50 CL” value [1] was 0.0045%, the “LC50 LH” value [2] was > 0.05% and the “LC50 TBW E” value [3] was > 0.1%. For the same molecule, the “LC50 MW” value [4] was > 0.01% and the “LC50 HF” value [5] was > 100 µg.

`Cc1ccc(N=C(OCc2ccc(F)c(Oc3ccccc3)c2)C(C)C)cc1Cl` [Compound 356] was tested, and the “LC50 CL” value [1] was > 0.1%, the “LC50 LH” value [2] was < 0.05% and the “LC50 TBW E” value [3] was 0.025%. The “LC50 MW” value [4] was > 0.01% and the “LC50 HF” value [5] was < 100 µg.

With `CC(C)C(=Nc1ccc(F)c(Cl)c1)OCc1cccc(Oc2ccccn2)c1` [Compound 549] the “LC50 CL” value [1] was > 0.1%, the “LC50 LH” value [2] was > 0.05% and the “LC50 TBW E” value [3] was > 0.1%. The “LC50 MW” value [4] was > 0.01% and the “LC50 HF” value [5] was < 100 µg.

In the case of `COCc1c(F)c(F)c(COC(=Nc2ccc(C(C)(C)C)cc2)C(C)C)c(F)c1F` [Compound 544], the “LC50 CL” value [1] was > 0.1%, the “LC50 LH” value [2] was > 0.05% and the “LC50 TBW E” value [3] was > 0.1%. The “LC50 MW” value [4] was > 0.01% and the “LC50 HF” value [5] was > 100 µg.

For `Cc1ccc(N=C(OCc2ccc(F)c(Oc3ccc(F)cc3)c2)C(C)C)cc1Cl` [Compound 357], the “LC50 CL” value [1] was > 0.1%, the “LC50 LH” value [2] was < 0.05% and the “LC50 TBW E” value [3] was > 0.1%. The “LC50 MW” value [4] was 0.01% and the “LC50 HF” value [5] was < 100 µg.

`CC(C)(F)C(=Nc1ccc(F)c(Cl)c1)OCc1cccc(Oc2ccc(F)cc2F)c1` [Compound 315] was tested, and the “LC50 CL” value [1] was 0.002%, the “LC50 LH” value [2] was > 0.05% and the “LC50 TBW E” value [3] was > 0.1%. The “LC50 MW” value [4] was > 0.01% and the “LC50 HF” value [5] was > 100 µg.

For `CC(C)C(=Nc1ccc2c(c1)OCO2)OCc1ccnc(Oc2ccccc2)c1` [Compound 540], the “LC50 CL” value [1] was < 0.1%, the “LC50 LH” value [2] was > 0.05% and the “LC50 TBW E” value [3] was > 0.1%. For the same molecule, the “LC50 MW” value [4] was > 0.01% and the “LC50 HF” value [5] was > 100 µg.

With `CCc1ccc(N=C(OCc2ccc(F)c(Oc3ccc(F)cc3)c2)C(C)C)cc1` [Compound 361] the “LC50 CL” value [1] was 0.001%, the “LC50 LH” value [2] was < 0.05% and the “LC50 TBW E” value [3] was 0.04%. The “LC50 MW” value [4] was > 0.01% and the “LC50 HF” value [5] was < 100 µg.

For `CC(C)C(=Nc1ccc(F)c(Cl)c1)OCc1cccc(OCc2ccc(F)cc2)c1` [Compound 490], the “LC50 CL” value [1] was 0.0045%, the “LC50 LH” value [2] was > 0.05% and the “LC50 TBW E” value [3] was > 0.1%. For the same molecule, the “LC50 MW” value [4] was > 0.01% and the “LC50 HF” value [5] was > 100 µg.

In the case of `Cc1cc(N=C(OCc2ccc(F)c(Oc3ccc(F)cc3)c2)C(C)C)ccc1Br` [Compound 359], the “LC50 CL” value [1] was > 0.1%, the “LC50 LH” value [2] was 0.05% and the “LC50 TBW E” value [3] was 0.023%. For the same molecule, the “LC50 MW” value [4] was > 0.01% and the “LC50 HF” value [5] was < 100 µg.

For `CC(C)C(=Nc1ccc(F)c(Cl)c1)OCc1cccc(Oc2ccc(Cl)cn2)c1` [Compound 527], the “LC50 CL” value [1] was 0.00065%, the “LC50 LH” value [2] was > 0.05% and the “LC50 TBW E” value [3] was 0.035%. For the same molecule, the “LC50 MW” value [4] was > 0.01% and the “LC50 HF” value [5] was 47 µg.

With `Cc1ccc(N=C(OCc2ccc(F)c(Oc3ccccc3)c2)C(C)C)cc1F` [Compound 354] the “LC50 CL” value [1] was > 0.1%, the “LC50 LH” value [2] was < 0.05% and the “LC50 TBW E” value [3] was 0.018%. The “LC50 MW” value [4] was 0.0068% and the “LC50 HF” value [5] was < 100 µg.

`CC(C)C(=Nc1cccc(C(F)(F)F)c1)OCc1cc(Oc2ccc(F)cc2)ccn1` [Compound 528] was tested, and the “LC50 CL” value [1] was 0.0075%, the “LC50 LH” value [2] was > 0.05% and the “LC50 TBW E” value [3] was > 0.1%. For the same molecule, the “LC50 MW” value [4] was > 0.01% and the “LC50 HF” value [5] was 59.1 µg.

`CC(C)C(=Nc1ccc(F)c(Cl)c1)OCc1ccc(OCc2ccccc2)cc1` [Compound 475] was tested, and the “LC50 CL” value [1] was 0.008%, the “LC50 LH” value [2] was > 0.05% and the “LC50 TBW E” value [3] was > 0.1%. The “LC50 MW” value [4] was > 0.01% and the “LC50 HF” value [5] was > 100 µg.

For `CSc1ccc(N=C(OCc2cccc(Oc3ccccc3)c2)C(C)C)cc1` [Compound 142], the “LC50 CL” value [1] was 0.005%, the “LC50 LH” value [2] was > 0.05% and the “LC50 TBW E” value [3] was 0.1%. The “LC50 MW” value [4] was > 0.01% and the “LC50 HF” value [5] was 15 µg.

`CC(C)C(=Nc1ccc2c(c1)OCO2)OCc1ccc(F)c(Oc2ccc(Cl)cc2)c1` [Compound 366] was tested, and the “LC50 CL” value [1] was 0.0007%, the “LC50 LH” value [2] was 0.05% and the “LC50 TBW E” value [3] was 0.012%. For the same molecule, the “LC50 MW” value [4] was > 0.01% and the “LC50 HF” value [5] was < 100 µg.

In the case of `C#CC(OC(=Nc1ccc(F)c(Cl)c1)C(C)C)c1cccc(Oc2ccccc2)c1` (centres unmarked) [Compound 533, N-(3-chloro-4-fluorophenyl)-O-[1-(3-phenoxyphenyl)-2-propyn-1-yl]isobutyrimidate], the “LC50 CL” value [1] was > 0.1%, the “LC50 LH” value [2] was > 0.05% and the “LC50 TBW E” value [3] was > 0.1%. The “LC50 MW” value [4] was > 0.01% and the “LC50 HF” value [5] was 60 µg.

With `CSc1ccc(N=C(OCc2ccc(F)c(Oc3ccccc3)c2)C(C)C)cc1` [Compound 353] the “LC50 CL” value [1] was > 0.1%, the “LC50 LH” value [2] was > 0.05% and the “LC50 TBW E” value [3] was > 0.1%. The “LC50 MW” value [4] was > 0.01% and the “LC50 HF” value [5] was < 100 µg.

With `CCC(=Nc1ccc(F)c(F)c1)OCc1coc(Cc2ccccc2)c1` [Compound 524] the “LC50 CL” value [1] was > 0.1%, the “LC50 LH” value [2] was > 0.05% and the “LC50 TBW E” value [3] was > 0.1%. The “LC50 MW” value [4] was > 0.01% and the “LC50 HF” value [5] was 5.2 µg.

For `CC(C)C(=Nc1ccc(Br)c(C(F)(F)F)c1)OCc1ccc(F)c(Oc2ccc(F)cc2)c1` [Compound 364], the “LC50 CL” value [1] was 0.00045%, the “LC50 LH” value [2] was < 0.05% and the “LC50 TBW E” value [3] was 0.025%. For the same molecule, the “LC50 MW” value [4] was > 0.01% and the “LC50 HF” value [5] was < 100 µg.

With `CC(C)C(=Nc1ccc(C#N)cc1)OCc1cccc(Oc2ccccc2)c1` [Compound 172] the “LC50 CL” value [1] was 0.002%, the “LC50 LH” value [2] was > 0.05% and the “LC50 TBW E” value [3] was 0.04%. For the same molecule, the “LC50 MW” value [4] was > 0.01% and the “LC50 HF” value [5] was 5 µg.
